The values that follow come from ChEMBL document CHEMBL1201862, “PubChem BioAssay data set” (2004).

Test systems include HL-60; DU-145; UACC-62; COLO 205; UACC-257; LOX IMVI; M14; SW-620; HOP-62; OVCAR-4; SK-MEL-28; MDA-N; SF-295; MDA-MB-231; IGROV-1; Malme-3M; EKVX; RXF 393; OVCAR-3; NCI-H460.
What all share (assay): NCI-60 cell line screen, 48 h

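Following 48 hours of exposure in 96-well plates, responses at five concentrations were used to interpolate endpoints linearly. At the GI50, growth is halved.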 Calls of active or inactive are those of the source. No stated cut-off is given here; in the data, active = GI50 up to about 1.1 µM and inactive = higher. Where only a bound is given, the exact number is not on record here.

For the compound `O=C(O)c1cc(-c2ccc3c(O)ccc(O)c3c2)ccc1O`, the GI50 in the test on HL-60 is > 100 µM (inactive); in the test with DU-145 it was 24 µM (inactive); in the test with UACC-62, 18.2 µM (inactive); in the test on COLO 205 it was 19.5 µM (inactive); in the test on UACC-257, 17.4 µM (inactive); in the test on LOX IMVI, 11.5 µM (inactive). Besides, the GI50 with M14 was 21.9 µM (inactive); with SW-620, 5.82 µM (inactive); in the test with HOP-62, 34.1 µM (inactive); in the test on OVCAR-4, 16.5 µM (inactive); in the test on SK-MEL-28, 18.1 µM (inactive); in the test on MDA-N, 16.7 µM (inactive). Besides, the GI50 is 18.2 µM (inactive) in the test on SF-295; 23.2 µM (inactive) in the test on MDA-MB-231; 16.7 µM (inactive) with IGROV-1; 18.7 µM (inactive) in the test on Malme-3M; 18.2 µM (inactive) in the test with EKVX; 12.9 µM (inactive) with RXF 393. Moreover, the GI50 is 20.9 µM (inactive) in the test on OVCAR-3 and 20.5 µM (inactive) in the test on NCI-H460.
As to `COc1ccccc1/C=C1\CCC(Cc2ccccc2)(CN(C)C)C1=O` (stereo not given), the GI50 is 0.471 µM (active) in the test on HL-60; 7.93 µM (inactive) in the test with DU-145; 1.28 µM (inactive) in the test with UACC-62; 1.37 µM (inactive) with COLO 205; 12.3 µM (inactive) in the test on UACC-257; 1.19 µM (inactive) in the test with LOX IMVI. Further, the GI50 in the test on M14 is 3.13 µM (inactive); with SW-620 it was 0.259 µM (active); in the test on HOP-62, 11.6 µM (inactive); in the test with OVCAR-4, 17.8 µM (inactive); in the test on SK-MEL-28, 20.3 µM (inactive); with MDA-N, 0.685 µM (active). Also, the GI50 with SF-295 is 1.34 µM (inactive); in the test on MDA-MB-231, 4.59 µM (inactive); with IGROV-1, 3.67 µM (inactive); with Malme-3M, 14.1 µM (inactive); in the test on EKVX it was 3.35 µM (inactive); in the test with RXF 393 it was 7.93 µM (inactive). Moreover, the GI50 with OVCAR-3 is 0.942 µM (active); with NCI-H460 it was 0.698 µM (active).
For the compound `O=P1(Oc2ccccc2)N(CCCl)CCN1c1ccccc1` (stereo not given), the GI50 in the test on HL-60 was > 100 µM (inactive); with DU-145, > 100 µM (inactive); in the test on UACC-62, > 100 µM (inactive); with COLO 205 it was > 100 µM (inactive); in the test on UACC-257, 79.6 µM (inactive); in the test with LOX IMVI, > 100 µM (inactive). In addition, the GI50 with M14 is > 100 µM (inactive); in the test with SW-620, > 100 µM (inactive); with HOP-62, > 100 µM (inactive); in the test on OVCAR-4 it was 23.4 µM (inactive); in the test on SK-MEL-28, > 100 µM (inactive); in the test on MDA-N, > 100 µM (inactive). The GI50 is > 100 µM (inactive) in the test with SF-295; 95.7 µM (inactive) in the test with MDA-MB-231; 42.7 µM (inactive) in the test on IGROV-1; > 100 µM (inactive) in the test on Malme-3M; 80.4 µM (inactive) in the test with EKVX; 58.5 µM (inactive) in the test on RXF 393. Further, the GI50 in the test on OVCAR-3 and with NCI-H460 was > 100 µM (inactive) throughout.
Take `CCc1ccc(CCC(=O)O)nc1`: the GI50 in the test on HL-60, in the test with DU-145, in the test on UACC-62, in the test with COLO 205, in the test with UACC-257 and in the test on LOX IMVI was > 100 µM (inactive) each time. In addition, the GI50 in the test with M14, in the test with SW-620, in the test on HOP-62, in the test on OVCAR-4, with SK-MEL-28 and with MDA-N was > 100 µM (inactive) each time. In addition, the GI50 in the test on SF-295, with MDA-MB-231, in the test with IGROV-1, with Malme-3M, with EKVX and with RXF 393 was > 100 µM (inactive) in each case. In addition, the GI50 with OVCAR-3 and in the test with NCI-H460 was > 100 µM (inactive) throughout.
